Test results reported in publication PMC9891166, “Derivatives of 4-methyl-1,2,3-benzoxathiazine 2,2-dioxide as selective inhibitors of human carbonic anhydrases IX and XII over the cytosolic isoforms I and II” (Journal of Enzyme Inhibition and Medicinal Chemistry, 2023).
Where two headings read alike, the source gives them in different places.

Key:
Experiment in all cases: stopped-flow CO2 hydration assay
Type in all cases: biochemical
[1] = molecular target: T1, hCA I (Homo sapiens, UniProt P00915); details: read-out: KI (nM)^a,b / hCA I
T1 construct: gene CA1; recombinant, obtained in-house as reported earlier; cytosolic
Text: stopped-flow CO2 hydration assay on hCA I

[2] = molecular target: T2, hCA II (Homo sapiens, UniProt P00918); details: read-out: KI (nM)^a,b / hCA II
T2 construct: gene CA2; recombinant, obtained in-house as reported earlier; cytosolic
Text: stopped-flow CO2 hydration assay on hCA II

[3] = molecular target: T2, hCA II; details: read-out: KI (nM)^a,b / hCA I

T1 sequence (P00915 2-261): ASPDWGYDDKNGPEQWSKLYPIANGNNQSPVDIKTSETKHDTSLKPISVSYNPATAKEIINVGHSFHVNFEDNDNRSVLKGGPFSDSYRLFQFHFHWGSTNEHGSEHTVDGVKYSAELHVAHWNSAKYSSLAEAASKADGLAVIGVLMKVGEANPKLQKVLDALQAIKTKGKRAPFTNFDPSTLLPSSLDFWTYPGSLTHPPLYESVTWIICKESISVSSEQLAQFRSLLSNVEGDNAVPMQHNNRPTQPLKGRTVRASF

With `CCOC(=O)c1ccc(-c2ccc3c(c2)C(C)=NS(=O)(=O)O3)cc1` [5e, Ethyl 4–(4-methyl-2,2-dioxido-1,2,3-benzoxathiazin-6-yl)benzoate] the Ki [1] was 19600 nM and the Ki [2] was 8250 nM.
`CC1=NS(=O)(=O)Oc2ccc(-c3ccc(Cl)c(Cl)c3)cc21` [5d, 6–(3,4-Dichlorophenyl)-4-methyl-1,2,3-benzoxathiazine 2,2-dioxide] gave a Ki [1] of over 100000 nM and a Ki [2] of 4530 nM.
`CC1=NS(=O)(=O)Oc2ccc(-c3ccc(F)cc3)cc21` [5b, 6–(4-Fluorophenyl)-4-methyl-1,2,3-benzoxathiazine 2,2-dioxide] gave a Ki [1] of 24500 nM and a Ki [2] of 1530 nM.
Work on `CC1=NS(=O)(=O)Oc2cc(Cl)ccc21` [2i, 7-Chloro-4-methyl-1,2,3-benzoxathiazine 2,2-dioxide] yielded a Ki [1] of 82100 nM and a Ki [2] of 1660 nM.
`COc1ccc2c(c1)OS(=O)(=O)N=C2C` [2g, 7-Methoxy-4-methyl-1,2,3-benzoxathiazine 2,2-dioxide] was tested, and the Ki [1] was 24900 nM and the Ki [2] was 559 nM.
Compound `CC1=NS(=O)(=O)Oc2ccc(Br)cc21` [2e, 6-Bromo-4-methyl-1,2,3-benzoxathiazine 2,2-dioxide] has a Ki [1] of over 100000 nM and a Ki [2] of 5570 nM.
`CC1=NS(=O)(=O)Oc2cc(C)ccc21` [2f, 4,7-Dimethyl-1,2,3-benzoxathiazine 2,2-dioxide] gave a Ki [1] of 33200 nM and a Ki [2] of 788 nM.
`CC1=NS(=O)(=O)Oc2cc(F)ccc21` [2h, 7-Fluoro-4-methyl-1,2,3-benzoxathiazine 2,2-dioxide] gave a Ki [1] of 10500 nM and a Ki [2] of 284 nM.
With `COc1ccc(-c2ccc3c(c2)C(C)=NS(=O)(=O)O3)cc1` [5c, 6–(4-Methoxyphenyl)-4-methyl-1,2,3-benzoxathiazine 2,2-dioxide] the Ki [1] was 70500 nM and the Ki [2] was 7120 nM.
With `COc1cccc2c1C(C)=NS(=O)(=O)O2` [2a, 5-Methoxy-4-methyl-1,2,3-benzoxathiazine 2,2-dioxide] the Ki [1] was over 100000 nM and the Ki [3] was over 100000 nM.
With `CC1=NS(=O)(=O)Oc2ccc(-c3ccccc3)cc21` [5a, 4-Methyl-6-phenyl-1,2,3-benzoxathiazine 2,2-dioxide] the Ki [1] was 60600 nM and the Ki [2] was 936 nM.
With `CC1=NS(=O)(=O)Oc2cc(-c3ccc(Cl)c(Cl)c3)ccc21` [5i, 7–(3,4-Dichlorophenyl)-4-methyl-1,2,3-benzoxathiazine 2,2-dioxide] the Ki [1] was over 100000 nM and the Ki [2] was 10000 nM.
Compound `CC1=NS(=O)(=O)Oc2ccc(C)cc21` [2b, 4,6-Dimethyl-1,2,3-benzoxathiazine 2,2-dioxide] has a Ki [1] of 21000 nM and a Ki [2] of 457 nM.
Compound `CC1=NS(=O)(=O)Oc2ccc(F)cc21` [2c, 6-Fluoro-4-methyl-1,2,3-benzoxathiazine 2,2-dioxide] has a Ki [1] of 12400 nM and a Ki [2] of 229 nM.
`CC1=NS(=O)(=O)Oc2cc(-c3ccccc3)ccc21` [5f, 4-Methyl-7-phenyl-1,2,3-benzoxathiazine 2,2-dioxide] was tested, and the Ki [1] was over 100000 nM and the Ki [2] was 2360 nM.
`CC1=NS(=O)(=O)Oc2cc(Br)ccc21` [2j, 7-Bromo-4-methyl-1,2,3-benzoxathiazine 2,2-dioxide] gave a Ki [1] of over 100000 nM and a Ki [2] of 11500 nM.
Compound `CC1=NS(=O)(=O)Oc2ccc(Cl)cc21` [2d, 6-Chloro-4-methyl-1,2,3-benzoxathiazine 2,2-dioxide] has a Ki [1] of 45700 nM and a Ki [2] of 634 nM.
For `CCOC(=O)c1ccc(-c2ccc3c(c2)OS(=O)(=O)N=C3C)cc1` [5j, Ethyl 4–(4-methyl-2,2-dioxido-1,2,3-benzoxathiazin-7-yl)benzoate], the Ki [1] was over 100000 nM and the Ki [2] was 6780 nM.
Work on `COc1ccc(-c2ccc3c(c2)OS(=O)(=O)N=C3C)cc1` [5h, 7–(4-Methoxyphenyl)-4-methyl-1,2,3-benzoxathiazine 2,2-dioxide] yielded a Ki [1] of over 100000 nM and a Ki [2] of 3170 nM.
Work on `CC1=NS(=O)(=O)Oc2cc(-c3ccc(F)cc3)ccc21` [5g, 7–(4-Fluorophenyl)-4-methyl-1,2,3-benzoxathiazine 2,2-dioxide] yielded a Ki [1] of over 100000 nM and a Ki [2] of 5370 nM.
